Reference: publication PMC5753150 (Beilstein Journal of Organic Chemistry, 2017)
“Also recorded” adds a separate entry of the source. *1 amine or outer side, *2 acyl side, *3 side chain or, on linkers, in order; H or OH if unused. Where a SMILES comes first, the peptide text is derived from it. [ ]: non-standard residue; d: D form. Leu(5,5,5,5',5',5'-F6) = N[C@@H](CC(C(F)(F)F)C(F)(F)F)C(=O)O; X1 = C[C@@H](CC(F)(F)F)[C@H](N[*:1])C(=O)[*:2]; 2Abz = Nc1ccccc1C(=O)O

Experiments:
[1] = target: T1, α-chymotrypsin (EC 3.4.21.1) (Bos taurus, UniProt P00766); experiment: Protease digestion assay with α-chymotrypsin (FL-RP-HPLC); type: in vitro ADME, bovine; conditions: for Gain in proteolytic stability upon fluorination compared to the non-fluorinated (Leu or Ile) analogue / Proteolytic stability compared to control peptide FA after 120 min / Proteolytic stability compared to control peptide FA after 24 h: α-chymotrypsin, 10 mM phosphate buffer pH 7.4, 30 °C, FL-RP-HPLC; for Gain in proteolytic stability upon fluorination compared to the non-fluorinated (Leu or Ile) analogue: after 24 h; for Proteolytic stability compared to control peptide FA after 120 min / Proteolytic stability compared to control peptide FA after 24 h: three independent measurements; for Percentage of substrate remaining after incubation for 24 h: α-chymotrypsin (bovine pancreas), 10 mM phosphate buffer pH 7.4 with DMSO, 30 °C, FL-RP-HPLC peak integration (Abz, λex 320/λem 420 nm), average of three independent measurements
T1 construct: purchased Sigma Aldrich; host or cells: bovine pancreas
Procedure: (§1) The FA peptide was used as a reference. […] All experiments were performed in triplicate.
(§2) The used linear gradients are
(§3) chromatograms where an insufficient baseline separation was observed,
(§4) (proteinase K)]. The obtained data were analyzed with EZChrom Elite software
(§5) Method Time [min] Water + 0.1% (v/v) TFA [%] ACN + 0.1% (v/v) TFA [%]

[2] = target: pepsin (EC 3.4.23.1) (Sus scrofa, UniProt P00791); experiment: in vitro; conditions: for Percentage of substrate remaining after incubation for 24 h: pepsin (porcine stomach mucosa), 10 mM acetate buffer pH 4.0 with DMSO, 30 °C, FL-RP-HPLC peak integration (Abz, λex 320/λem 420 nm), average of three independent measurements
Procedure: (§6) The course of proteolytic digestion was characterized by an analytical HPLC-assay with fluorescence detection. For quantification of substrate degradation, integration of the corresponding HPLC peak was conducted. Cleavage products were identified by ESI–ToF mass spectrometry (see Supporting Information File 1, Tables S4–S7).
(§7) All peptides employed in the degradation studies were used as the TFA salts obtained after lyophilization. Stock solutions of α-chymotrypsin (from bovine pancreas, EC 3.4.21.1, ≥40.0 units/mg of protein, Sigma Aldrich, St. Louis, MO, USA), and pepsin (from porcine stomach mucosa, EC 3.4.23.1, ≥250 units/mg of protein, Sigma Aldrich, St. Louis, MO, USA) were prepared at concentrations of 1 mg/mL in phosphate buffer (10 mM, pH 7.4), or in acetate buffer (10 mM, pH 4.0), respectively. For proteinase K (from tritirachium album, EC 3.4.21.64, ≥30 units/mg of protein, Sigma Aldrich, St. Louis, MO, USA) and elastase (from porcine pancreas, EC 3.4.21.36, 6.2 units/mg of protein, Sigma Aldrich, St. Louis, MO, USA) stock solutions were prepared also at concentrations of 1 mg/mL in tris/HCl (50 mM) + CaCl2 (10 mM) buffer (pH 7.5), or in tris/HCl buffer (100 mM, pH 8.4), respectively. Peptides (0.002 mmol) were prepared as stocks in DMSO (100 µL) and incubated with the respective enzyme at 30 °C (for α-chymotrypsin and pepsin) or 37 °C (for proteinase K and elastase) with shaking at 300 rpm in a thermomixer over a period of 24 h. The reaction mixture consisted of DMSO (15 µL), corresponding buffer (25 µL), peptide solution (5 µL) and the corresponding enzyme solution (5 µL). […] Aliquots of 5 µL were taken at fixed time points (0, 15, 30, 60, 90, 120 min as well as 3 h and 24 h) and either quenched with ACN containing 0.1% (v/v) TFA (95 µL), in the case of α-chymotrypsin, proteinase K and elastase, or 2% aqueous ammonia (95 µL), in the case of pepsin. All samples were subjected to analytical HPLC on a LaChrom-ELITE-HPLC-System equipped with a fluorescence detector (VWR International Hitachi, Darmstadt, Germany). A monolithic reversed-phase C8 Chromolith® Performance HPLC column (100 × 4.6 mm, Merck KGaA, Darmstadt, Germany) was used to resolve and quantify the products of digestion. The used system and gradients are described in detail in Supporting Information File 1. Detection based on the Abz label was carried out using a fluorescence detector with λex = 320 nm and λem = 420 nm. In all cases, the peaks corresponding to the starting materials (full-length peptides) or the N-terminal fragments (products) were integrated and used to determine the velocity of the reaction (see Supporting Information File 1). […] Each fragment cleaved from the full-length peptide was identified by ESI–ToF mass analysis on an Agilent 6220 ESI–ToF–MS spectrometer (Agilent Technologies, Santa Clara, CA, USA, see Supporting Information File 1). All experiments were performed in triplicate.
(§8) 2130) with solvent degasser, an autosampler (L-2200) with a 100 µL sample loop, a diode array flow detector (L-2455), a fluorescence detector (L-2485) and a high pressure gradient mixer. As eluents water and ACN, both containing 0.1% (v/v) TFA were used, and a flow rate of 3 mL/min was applied. The used linear gradients are […]
(§9) For the non-fluorinated peptides method A was used to follow the digestion process, and for the fluorinated peptides method B was applied. For […]
(§10) The obtained data were analyzed with EZChrom Elite software
(§11) (version 3.3.2, Agilent Technologies, Santa Clara, CA, USA).

[3] = target: elastase (EC 3.4.21.36) (Sus scrofa, UniProt P00772)
Procedure: as §6, §7, §8, §9, §10, §11

[4] = target: T2, proteinase K (EC 3.4.21.64) (Parengyodontium album, UniProt P06873); experiment: Protease digestion assay with proteinase K (FL-RP-HPLC); type: in vitro ADME, tritirachium album; conditions: for Gain in stability upon fluorination compared to the non-fluorinated analogue, 120 min: after 120 min
T2 construct: purchased Sigma Aldrich; host or cells: Tritirachium album
Procedure: as §1, §2, §3, §4, §5

[5] = in vitro; conditions: pig, pepsin from porcine stomach mucosa, pH 4
Procedure: as §6, §7, §8, §9, §10, §11

[6] = pepsin, 10 mM acetate buffer pH 4.0, 30 °C, 120 min, FL-RP-HPLC
[7] = pepsin, 10 mM acetate buffer pH 4.0, 30 °C, after 24 h
[8] = elastase (porcine pancreas), 100 mM Tris/HCl buffer pH 8.4 with DMSO, 37 °C, FL-RP-HPLC, mean of three independent measurements
[9] = proteinase K, 50 mM Tris/HCl + 10 mM CaCl2 pH 7.5, 37 °C, 120 min, FL-RP-HPLC
[10] = proteinase K, 50 mM Tris/HCl + 10 mM CaCl2 pH 7.5, 37 °C

Sequence of elastase (EC 3.4.21.36) (P00772 27-266): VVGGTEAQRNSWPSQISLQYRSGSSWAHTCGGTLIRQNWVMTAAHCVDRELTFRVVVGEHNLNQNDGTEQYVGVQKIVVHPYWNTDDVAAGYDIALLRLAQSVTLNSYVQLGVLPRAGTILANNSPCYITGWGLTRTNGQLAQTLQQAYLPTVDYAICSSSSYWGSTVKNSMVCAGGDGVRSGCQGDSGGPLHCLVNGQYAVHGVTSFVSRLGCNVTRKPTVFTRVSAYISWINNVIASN
Sequence of pepsin (EC 3.4.23.1) (P00791 60-385): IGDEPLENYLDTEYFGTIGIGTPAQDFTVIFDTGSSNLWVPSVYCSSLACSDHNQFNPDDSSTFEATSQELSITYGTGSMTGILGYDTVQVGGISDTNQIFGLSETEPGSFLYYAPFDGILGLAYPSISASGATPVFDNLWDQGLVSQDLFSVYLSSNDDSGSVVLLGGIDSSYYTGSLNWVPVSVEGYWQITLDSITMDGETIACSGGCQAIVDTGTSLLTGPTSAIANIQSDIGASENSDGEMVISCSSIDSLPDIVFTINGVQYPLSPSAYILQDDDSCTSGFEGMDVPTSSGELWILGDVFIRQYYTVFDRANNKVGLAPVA
T2 sequence (P06873 106-384): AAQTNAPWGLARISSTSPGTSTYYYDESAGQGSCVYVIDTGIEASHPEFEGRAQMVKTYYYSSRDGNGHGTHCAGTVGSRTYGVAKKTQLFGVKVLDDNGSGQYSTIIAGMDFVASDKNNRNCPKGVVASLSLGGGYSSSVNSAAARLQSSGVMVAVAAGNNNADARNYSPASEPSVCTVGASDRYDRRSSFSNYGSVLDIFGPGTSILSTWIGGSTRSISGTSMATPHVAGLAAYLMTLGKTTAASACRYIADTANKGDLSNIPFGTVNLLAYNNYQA

C[C@H](NC(=O)[C@H](C)NC(=O)[C@H](CC(C(F)(F)F)C(F)(F)F)NC(=O)[C@H](Cc1ccccc1)NC(=O)[C@H](C)NC(=O)[C@H](C)NC(=O)[C@H](CCCCN)NC(=O)c1ccccc1N)C(=O)N[C@@H](C)C(=O)N[C@@H](CCCCN)C(=O)O [P1’-HfLeuFA] (H-[2Abz]KAAF[Leu(5,5,5,5',5',5'-F6)]AAAK-OH)
Gain in proteolytic stability upon fluorination compared to the non-fluorinated (Leu or Ile) analogue [1]: better substrate than the non-fluorinated Leu peptide
Proteolytic stability compared to control peptide FA after 120 min [2, 6]: same persistence
Proteolytic stability compared to control peptide FA after 24 h ([2]; pepsin, 10 mM acetate buffer pH 4.0, 30 °C, 24 h, FL-RP-HPLC): somewhat more stable than the control FA
Stabilization upon fluorination compared to the non-fluorinated analogue, 120 min ([2]; pepsin, 10 mM acetate buffer pH 4.0, 30 °C, after 120 min): about 20%
Destabilization compared to the hydrocarbon analogue, 24 h [2, 7]: 17%
Proteolytic stability compared to control peptide FA after 24 h ([3]; elastase, 100 mM Tris/HCl buffer pH 8.4, 37 °C, 24 h, FL-RP-HPLC): more stable than the control peptide FA
Gain in stability upon fluorination compared to the non-fluorinated (Leu or Ile) analogue, 24 h ([3]; elastase, 100 mM Tris/HCl buffer pH 8.4, 37 °C, after 24 h): 85%

CC[C@H](C)[C@H](NC(=O)[C@H](C)NC(=O)[C@H](Cc1ccccc1)NC(=O)[C@H](C)NC(=O)[C@H](C)NC(=O)[C@H](CCCCN)NC(=O)c1ccccc1N)C(=O)N[C@@H](C)C(=O)N[C@@H](C)C(=O)N[C@@H](CCCCN)C(=O)O [P2’-IleFA] (H-[2Abz]KAAFAIAAK-OH)
Proteolytic stability compared to control peptide FA after 120 min [1]: more stable against digestion
Proteolytic stability compared to control peptide FA after 24 h [1]: accelerated proteolysis compared to FA
Percentage of substrate remaining after incubation for 24 h ([2]; 24 h): completely digested
Proteolytic stability compared to control peptide FA after 120 min [2, 6]: degraded faster than the control FA
Degradation state after incubation for 120 min [3, 8]: somewhat digested
Percentage of substrate remaining after incubation for 24 h ([3]; elastase (porcine pancreas), 100 mM Tris/HCl buffer pH 8.4 with DMSO, 37 °C, 24 h, FL-RP-HPLC peak integration (Abz fluorescence), mean of three independent measurements): almost complete proteolysis
Proteolytic stability compared to control peptide FA after 120 min [4, 9]: as stable as FA

CC(C)C[C@H](NC(=O)[C@H](C)NC(=O)[C@H](Cc1ccccc1)NC(=O)[C@H](C)NC(=O)[C@H](C)NC(=O)[C@H](CCCCN)NC(=O)c1ccccc1N)C(=O)N[C@@H](C)C(=O)N[C@@H](C)C(=O)N[C@@H](CCCCN)C(=O)O [P2’-LeuFA] (H-[2Abz]KAAFALAAK-OH)
Proteolytic stability compared to control peptide FA after 120 min [1]: more stable against digestion
Proteolytic stability compared to control peptide FA after 24 h [1]: accelerated proteolysis compared to FA
Proteolytic stability compared to control peptide FA after 120 min [2, 6]: degraded faster than the control FA
Degradation state after incubation for 120 min [3, 8]: somewhat digested

C[C@H](NC(=O)[C@H](C)NC(=O)[C@H](CC(C(F)(F)F)C(F)(F)F)NC(=O)[C@H](C)NC(=O)[C@H](Cc1ccccc1)NC(=O)[C@H](C)NC(=O)[C@H](C)NC(=O)[C@H](CCCCN)NC(=O)c1ccccc1N)C(=O)N[C@@H](CCCCN)C(=O)O [P2’-HfLeuFA] (H-[2Abz]KAAFA[Leu(5,5,5,5',5',5'-F6)]AAK-OH)
Percentage of substrate remaining after incubation for 24 h [1]: up to 44%
Proteolytic stability compared to control peptide FA after 120 min [1]: more stable against digestion
remaining at 24 h, 2 mM [5]: ~76%
Peptide digested (hydrolysis) after 120 min ([2]; pepsin, 10 mM acetate buffer pH 4.0, 30 °C, 120 min, FL-RP-HPLC, enzyme concentration optimized to about 40% hydrolysis of FA): up to 5%
Degradation state after incubation for 120 min [4, 9]: almost completely degraded

C[C@H](NC(=O)[C@H](C)NC(=O)[C@H](C)NC(=O)[C@H](Cc1ccccc1)NC(=O)[C@H](CC(C(F)(F)F)C(F)(F)F)NC(=O)[C@H](C)NC(=O)[C@H](CCCCN)NC(=O)c1ccccc1N)C(=O)N[C@@H](C)C(=O)N[C@@H](CCCCN)C(=O)O [P2-HfLeuFA] (H-[2Abz]KA[Leu(5,5,5,5',5',5'-F6)]FAAAAK-OH)
Percentage of substrate remaining after incubation for 24 h [1]: not digested at all
Gain in proteolytic stability upon fluorination compared to the non-fluorinated (Leu or Ile) analogue [1]: ~100%
gain in stability vs non-fluorinated analogue after 24 h: 19%

Abz-KAAFATfIleAAK [P2’-TfIleFA, FA variant with 5,5,5-trifluoroisoleucine at position P2’]
Percentage of substrate remaining after incubation for 24 h ([2]; 24 h): completely digested
Proteolytic stability compared to control peptide FA after 120 min [2, 6]: degraded faster than the control FA
Degradation state after incubation for 120 min [3, 8]: somewhat digested
Gain in stability upon fluorination compared to the non-fluorinated analogue, 120 min [4, 10]: around 12%

C[C@H](NC(=O)[C@H](C)NC(=O)[C@H](C)NC(=O)[C@H](Cc1ccccc1)NC(=O)[C@@H](NC(=O)[C@H](C)NC(=O)[C@H](CCCCN)NC(=O)c1ccccc1N)[C@@H](C)CC(F)(F)F)C(=O)N[C@@H](C)C(=O)N[C@@H](CCCCN)C(=O)O [P2-TfIleFA] (H-[2Abz]KA[X1]FAAAAK-OH)
Percentage of substrate remaining after incubation for 24 h [1]: not digested at all
Gain in proteolytic stability upon fluorination compared to the non-fluorinated (Leu or Ile) analogue [1]: 50%
remaining at 24 h, 2 mM [5]: 100%
Gain in proteolytic stability upon fluorination compared to the non-fluorinated analogue, 24 h [2, 7]: 100%
Percentage of substrate remaining after incubation for 24 h ([4]; proteinase K (tritirachium album), 50 mM Tris/HCl buffer containing 10 mM CaCl2 pH 7.5 with DMSO, 37 °C, 24 h, FL-RP-HPLC peak integration (Abz fluorescence), mean of three independent measurements): still left; also recorded: remarkably stable
Gain in stability upon fluorination compared to the non-fluorinated analogue, 120 min [4, 10]: 60%
gain in stability vs non-fluorinated analogue after 24 h: 35%
